{"source": "paper PMC8025945", "about": "(Journal of medicinal chemistry, 2017)", "key": {"HOP-62": {"test_system": "HOP-62", "details": "human, HOP-62 lung tumor cells"}, "DU-145": {"test_system": "DU-145", "details": "human, DU-145 prostate tumor cells"}, "recombinant Top1": {"biological_target": "T1, recombinant Top1 (Homo sapiens, UniProt P11387)", "T1 sequence (P11387 1-765)": "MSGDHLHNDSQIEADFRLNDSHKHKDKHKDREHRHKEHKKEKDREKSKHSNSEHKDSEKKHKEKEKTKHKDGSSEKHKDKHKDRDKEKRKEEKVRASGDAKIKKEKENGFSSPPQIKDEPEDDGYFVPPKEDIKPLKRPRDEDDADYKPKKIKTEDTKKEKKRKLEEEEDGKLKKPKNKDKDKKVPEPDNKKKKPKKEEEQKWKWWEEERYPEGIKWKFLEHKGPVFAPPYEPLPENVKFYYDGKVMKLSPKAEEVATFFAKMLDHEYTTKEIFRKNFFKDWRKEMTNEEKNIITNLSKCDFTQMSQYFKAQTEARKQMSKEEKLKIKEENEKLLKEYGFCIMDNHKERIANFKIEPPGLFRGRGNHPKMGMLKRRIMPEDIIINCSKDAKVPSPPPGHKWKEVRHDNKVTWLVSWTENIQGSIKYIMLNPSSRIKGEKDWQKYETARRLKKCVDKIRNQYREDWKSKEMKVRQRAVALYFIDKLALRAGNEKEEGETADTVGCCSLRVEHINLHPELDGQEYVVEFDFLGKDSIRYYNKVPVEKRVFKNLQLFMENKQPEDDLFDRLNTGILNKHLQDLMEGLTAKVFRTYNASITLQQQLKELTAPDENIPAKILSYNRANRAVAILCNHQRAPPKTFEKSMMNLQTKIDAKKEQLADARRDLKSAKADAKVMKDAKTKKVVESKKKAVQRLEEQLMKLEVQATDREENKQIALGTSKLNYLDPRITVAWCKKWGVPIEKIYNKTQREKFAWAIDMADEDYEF", "experiment": "Top1-mediated DNA cleavage assay", "type": "biochemical", "details": "semiquantitative scale relative to 1 μM MJ-III-65 (6) and 1 μM camptothecin (1)"}, "[1]": {"test_system": "NCI-60 human tumor cell lines", "details": "NCI-60 human tumor cell lines (all cell lines tested)"}, "OVCAR-3": {"test_system": "OVCAR-3", "details": "human, OVCAR-3 ovarian tumor cells"}, "HCT-116": {"test_system": "HCT-116", "details": "human, HCT-116 colon tumor cells"}}, "data": [{"smiles": "O=C1c2ccccc2-c2c1c1ccc(Cl)cc1c(=O)n2CCCn1ccnc1", "note": "[compound 8]", "values": [{"measurement": "GI50", "setting": "HOP-62", "value": 186, "unit": "nM"}, {"measurement": "GI50", "setting": "DU-145", "value": 309, "unit": "nM"}, {"measurement": "enzyme inhibitory activity Top1 (compound-induced DNA cleavage score)", "setting": "recombinant Top1", "value": "+++"}, {"measurement": "GI50", "setting": "[1]", "value": 229, "unit": "nM"}, {"measurement": "GI50", "setting": "OVCAR-3", "value": 407, "unit": "nM"}, {"measurement": "GI50", "setting": "HCT-116", "value": 107, "unit": "nM"}]}]}
